Test results: patent EP3146981A1, “COVALENTLY ATTACHED AZOBENZENE SWITCHES AND THEIR USES FOR THE OPTICAL CONTROL OF TARGET PROTEINS” (Ludwig-Maximilians-Universität München, priority 2015, dated 2017)
Where two headings read alike, the source gives them in different places.

Experiments:
SNAP-tag = test: In vitro SNAP-tag labeling, SDS page
Procedure: Scale bars represents 50 µM (top) and 10 µM (bottom). • Figure 9: SDS page after in vitro SNAP-tag labeling (New England Biolabs, #P9312S) with BGAG12 and D-MAG. Reductive (dithiothreitol, DTT), oxidative (oxidized glutathione, GSSG) or neutral conditions (no additive) were employed according to the manufacturer's instructions.

wild type mGluR2 = wild type mGluR2 (Rattus norvegicus, UniProt P31421); conditions: cells expressing wild type mGluR2 (no SNAP tag) incubated with BGAG12
[1] = Stability of the labeling solution in aqueous buffer (readout: photoactivation of SNAG-mGluR2); type: physicochemical; conditions: one week following dilution in aqueous buffer at room temperature
[2] = system: SNAP-mGluR2 in hippocampal neurons; test: Whole cell patch-clamp of hippocampal neurons, excitability; type: cell-based, mice
Procedure: Dissociated hippocampal neuron cultures were prepared from postnatal P0 or P1 mice on 12 mm glass coverslips as previously described (Levitz et al., 2013). Neurons were transfected with SNAP-mGluR2 (1.5 µg/well) and tdTomato (0.25 µg/well as a transfection marker) using the calcium phosphate method at DIV9. Whole cell patch clamp experiments were performed 3-6 days after transfection (DIV 12-15). Labeling was performed using the same protocol as HEK cells except BGAG was diluted in extracellular recording solution containing (in mM): 138 NaCl, 1.5 KCl, 1.2 MgCl2, 2.5 CaCl2, 10 glucose, 5 HEPES, pH 7.4. Glass pipettes of resistance 4-8 MΩ were filled with an intracellular solution containing (in mM): 140 K-gluconate, 10 NaCl, 5 EGTA, 2 MgCl2, 1 CaCl2, 10 HEPES, 2 MgATP and 0.3 Na2GTP, pH 7.2. Autaptic neurons were voltage clamped at -60 mV and a 2-3 ms voltage step to +20 mV was used to evoke a spike followed (~3-5 ms later) by an EPSC. Stimulation was performed once every 12 s to prevent rundown.
We first expressed SNAP-mGluR2-GFP in dissociated hippocampal neurons and labeled with BG-Alexa-647 to determine if SNAP-BG conjugation could occur efficiently in neuronal cultures, which are considerably denser than HEK 293T cell cultures. […]

[3] = reductive (DTT), oxidative (GSSG) or neutral conditions

wild type mGluR2, sequence (P31421 19-872): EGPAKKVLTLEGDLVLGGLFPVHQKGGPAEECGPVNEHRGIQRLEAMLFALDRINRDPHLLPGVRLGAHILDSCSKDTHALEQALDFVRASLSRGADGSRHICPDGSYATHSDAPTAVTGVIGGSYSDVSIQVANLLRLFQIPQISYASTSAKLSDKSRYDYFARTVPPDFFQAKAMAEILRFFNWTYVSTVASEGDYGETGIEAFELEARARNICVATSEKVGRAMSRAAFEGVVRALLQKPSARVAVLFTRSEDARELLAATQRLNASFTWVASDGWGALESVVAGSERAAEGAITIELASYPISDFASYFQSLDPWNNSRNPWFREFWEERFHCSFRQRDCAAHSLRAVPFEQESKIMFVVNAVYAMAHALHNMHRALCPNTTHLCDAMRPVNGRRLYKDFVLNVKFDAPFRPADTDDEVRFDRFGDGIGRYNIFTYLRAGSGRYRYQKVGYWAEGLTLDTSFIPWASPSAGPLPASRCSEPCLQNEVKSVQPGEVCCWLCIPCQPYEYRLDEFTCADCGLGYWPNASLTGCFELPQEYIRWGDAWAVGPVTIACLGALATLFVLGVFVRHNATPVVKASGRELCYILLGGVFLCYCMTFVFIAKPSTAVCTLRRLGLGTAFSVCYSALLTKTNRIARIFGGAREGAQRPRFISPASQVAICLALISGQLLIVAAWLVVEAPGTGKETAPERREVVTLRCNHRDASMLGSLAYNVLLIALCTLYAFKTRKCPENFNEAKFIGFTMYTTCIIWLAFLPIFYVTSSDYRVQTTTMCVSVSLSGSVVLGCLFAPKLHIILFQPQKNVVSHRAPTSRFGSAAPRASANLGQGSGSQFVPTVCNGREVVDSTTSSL

Nc1nc(OCc2ccc(CNC(=O)CCC(=O)N3Cc4ccccc4-c4c(nnn4CCOCCOCCOCCOCCOCCOCCOCCOCCOCCOCCOCCOCCC(=O)NCCNc4ccc(/N=N/c5ccc(NC(=O)CCC[C@@H](C[C@H](N)C(=O)O)C(=O)O)cc5)cc4)-c4ccccc43)cc2)c2nc[nH]c2n1 [BGAG12(460), (2S,4S)-2-amino-4-(4-((4-((E)-(4-((1-(8-(4-((4-(((2-amino-9H-purin-6-yl)oxy)methyl)-benzyl)amino)-4-oxobutanoyl)-8,9-dihydro-1H-dibenzo[b,f][1,2,3]triazolo[4,5-d]azo-cin-1-yl)-39-oxo-3,6,9,12,15,18,21,24,27,30,33,36-dodecaoxa-40-azadotetra-contan-42-yl)amino)phenyl)diazenyl)phenyl)amino)-4-oxobutyl)pentanedioic acid]
Relaxation following illumination (SNAP-mGluR2; in the dark after blue light): rapidly in the dark
photoactivation relative to saturating glutamate (SNAP-mGluR2; labeling with 10 µM, blue light (420-470 nm bandpass), n=18 cells): 34.9 ± 4.2%

D-Maleimide-Azobenzene Glutamate [D-MAG]
reaction with SNAP-tag (SNAP-tag; [3]): reacts only under oxidative and neutral conditions
reaction with SNAP-tag (SNAP-tag; reductive conditions (DTT)): unreactive towards the SNAP-tag under reductive conditions

COCCOCCOCCOCCOCCOCCOCCOCCOCCOCCOCCOCCC(=O)NCC(=O)Nc1ccc(/N=N/c2ccc(NC(=O)CCC[C@@H](C[C@H](N)C(=O)O)C(=O)O)cc2)cc1 [AG12, (2S,4S)-2-Amino-4-(4-oxo-4-((4-((E)-(4-(38-oxo-2,5,8,11,14,17,20,23,26,29,32,35-dodecaoxa-39-azahentetracontan-41-amido)phenyl)diazenyl)phenyl)amino)butyl)-pentanedioic acid]
photoagonism of SNAP-mGluR2, directionality (SNAP-mGluR2; PCL version where the BG group was omitted): same directionality as BGAG12

Nc1nc(OCc2ccc(CNC(=O)CCc3cn(CCOCCOCCOCCOCCOCCOCCOCCOCCOCCOCCOCCOCCC(=O)NCC(=O)Nc4ccc(/N=N/c5ccc(NC(=O)CCC[C@@H](C[C@H](N)C(=O)O)C(=O)O)cc5)cc4)nn3)cc2)c2nc[nH]c2n1 [BGAG12, (2S,4S)-2-Amino-4-(4-((4-((E)-(4-(1-(4-(3-((4-(((2-amino-9H-purin-6-yl)oxy)methyl)benzyl)amino)-3-oxopropyl)-1H-1,2,3-triazol-1-yl)-39-oxo-3,6,9,12,15,18,21,24,27,30,33,36-dodecaoxa-40-azadotetracontan-42-amido)phenyl)diazenyl)phenyl)amino)-4-oxobutyl)pentanedioic acid]
light responses (wild type mGluR2): no light responses
efficacy of optical activation on reuse of the labeling solution [1]: without a decline in efficacy of optical activation
photocurrents (SNAP-mGluR2; 100 nM labeling for 45 minutes): photocurrents were still observed
Light responses relative to the responses to saturating glutamate (SNAP-mGluR2; 10 µM for 45 minutes at 37 °C, washed, 380 nm, n=10 cells): 59.3 ± 2.8%
concentration showing optimal labeling (SNAP-mGluR2; 45 minute incubation): ≥ 1 µM
lowest concentration at which photocurrents were observed (SNAP-mGluR2; overnight labeling): 10 nM
photocurrents (SNAP-mGluR2; overnight labeling at 100 nM, versus 45 minutes): increased
reaction with SNAP-tag (SNAP-tag; [3]): reacts with SNAP-tag under each condition
membrane hyperpolarization ([2]; illumination at 380 nm, reversed at 500 nm): 2-8 mV
effect of light-induced hyperpolarization on firing ([2]; neurons at depolarized potentials that induced firing): sufficient to inhibit the action potentials
